pIC50: −log10 of the molar value. Where a SMILES comes first, the peptide text is derived from it. [ ]: non-standard residue; d: D form. The star is where a group is joined. Dolaproine = CO[C@@H]([C@@H]1CCCN1)[C@@H](C)C(=O)O; Dil = CC[C@H](C)[C@H](NC)[C@@H](CC(=O)O)OC; Doe = c1ccc(C[C@H](N*)c2nccs2)cc1; NMeV = CN[C@H](C(=O)O)C(C)C
Tested on: Human ovarian cancer cell line SKOV-3
Test: In vitro cytotoxicity, SKOV-3 cell viability (PrestoBlue)
Settings: for cytotoxicity compared with 1 (MMAF): SKOV-3, applied to the cell culture medium; for cytotoxicity compared with 2 (monomethyldolastatin 10): SKOV-3
[1] = SKOV-3, 96 h, concentration range wherein viability falls to 50%, measured range 1 nM-10 μM

Protocol: Human ovarian cancer cell line SKOV-3 was from the ATCC (Manassas, Va., USA). The cells were grown according to the manufacturer's recommendations. Log phase cultures were collected and 5000 cells/well were seeded onto 96-well plates and incubated for 24 h. Serial dilutions of test molecules from a stock solution of 100 μM in 10% DMSO were made in cell culture medium, added to cells (maximum concentration of dimethylsulphoxide was 1%) and cultures were incubated further for 96 h. Cell viability was evaluated using PrestoBlue cell viability reagent (Life Technologies, Carlsbad, Calif., USA) according to the manufacturer's instructions. Cells were incubated for 2 h, and dye reduction was measured by absorbance at 570 nm. The compounds were assayed 1-2 times in triplicate.

Molecule | pIC50 [1] | pIC50 (Homo sapiens, SK-OV-3, 96 h) | cytotoxicity compared with 1 (MMAF) | cytotoxicity compared with 2 (monomethyldolastatin 10)
CC[C@H](C)[C@@H]([C@@H](CC(=O)N1CCC[C@H]1[C@H](OC)[C@@H](C)C(=O)N[C@@H](Cc1ccccc1)C(=O)O)OC)N(C)C(=O)[C@@H](NC(=O)[C@@H](NC)C(C)C)C(C)C [Compound 1, Monomethylauristatin F, reference compound] (HELM PEPTIDE1{[meV].V.[CC[C@H](C)[C@@H]([C@@H](CC(=O)[*:2])OC)N(C)[*:1]].[CO[C@H]([C@@H](C)C(=O)[*:2])[C@@H]1CCCN1[*:1]].F}$$$$V2.0) | 6.00 to 7.00 |  |  | 
CC[C@H](C)[C@@H]([C@@H](CC(=O)N1CCC[C@H]1[C@H](OC)[C@@H](C)C(=O)N[C@@H](Cc1ccccc1)c1nccs1)OC)N(C)C(=O)[C@@H](NC(=O)[C@@H](NC)C(C)C)C(C)C [Compound 2, monomethyldolastatin 10, reference compound] (H-[NMeV]V[Dil][Dolaproine]-Doe) | > 9.00 |  |  | 
CCC(C)C(C(CC(=O)N1CCCC1C(OC)C(C)C(=O)NC(Cc1ccccc1)C(=O)O)OC)N(C)C(=O)C(NC(=O)C(C(C)C)N(C)CCC(O)C(O)C(O)CO)C(C)C [Compound 5, N-(2-deoxy-D-glucosyl)-MMAF] |  | 6.00 | equally or only slightly less cytotoxic | 
C#CCCN(C)C(C(=O)NC(C(=O)N(C)C(C(C)CC)C(CC(=O)N1CCCC1C(OC)C(C)C(=O)NC(Cc1ccccc1)C(=O)O)OC)C(C)C)C(C)C (centres unmarked) [Compound 6, N-(3-butynyl)-MMAF] |  | > 9.00 | more cytotoxic | 
CCC(C)C(C(CC(=O)N1CCCC1C(OC)C(C)C(=O)NC(Cc1ccccc1)C(=O)O)OC)N(C)C(=O)C(NC(=O)C(C(C)C)N(C)CC(O)C(O)C(O)C(O)COC1OC(CO)C(O)C(O)C1O)C(C)C [Compound 8, N-[6-O-(β-D-galactopyranosyl)-D-galactosyl]-MMAF] |  | 5.00 to 6.00 | less cytotoxic | 
CCC(C)C(C(CC(=O)N1CCCC1C(OC)C(C)C(=O)NC(Cc1ccccc1)C(=O)O)OC)N(C)C(=O)C(NC(=O)C(C(C)C)N(C)CC(O)C(O)C(OC1OC(CO)C(OC2OC(CO)C(O)C(O)C2O)C(O)C1O)C(O)CO)C(C)C [Compound 10, N-{4-O-[4-O-(α-D-galactopyranosyl)-β-D-galactopyranosyl]-D-glucosyl}-MMAF] |  | 5.00 to 6.00 |  | 
CCC(C)C(C(CC(=O)N1CCCC1C(OC)C(C)C(=O)NC(Cc1ccccc1)C(=O)O)OC)N(C)C(=O)C(NC(=O)C(C(C)C)N(C)CC(O)C(O)C(OC1OC(CO)C(O)C(OC2(C(=O)O)CC(O)C(NC(C)=O)C(C(O)C(O)CO)O2)C1O)C(O)CO)C(C)C [Compound 11, N-{4-O-[3-O-(α-N-acetylneuraminyl)-β-D-galactopyranosyl]-D-glucosyl}-MMAF] |  | < 5.00 | less cytotoxic | 
CCC(C)C(C(CC(=O)N1CCCC1C(OC)C(C)C(=O)NC(Cc1ccccc1)c1nccs1)OC)N(C)C(=O)C(NC(=O)C(C(C)C)N(C)CC(O)C(O)C(O)C(O)CN=[N+]=[N-])C(C)C [Compound 13, N-(6-azido-6-deoxy-D-galactosyl)-dolastatin 10] |  | > 9.00 |  | equally or only slightly less cytotoxic
N-(6-O-propargyl-D-galactosyl)-MMAF [Compound 3] | 5.00 to 7.00 |  |  | 
N-(6-azido-6-deoxy-D-galactosyl)-MMAF [Compound 4] | 6.00 to 7.00 |  |  | 
N-glutaryl-MMAF [Compound 14b] | 6.00 to 7.00 |  |  | equally or only slightly less cytotoxic

Reference: patent US20150314007A1, “LINKER-PAYLOAD MOLECULE CONJUGATES” (GLYKOS FINLAND OY, priority 2012, published 2015)
